A short description of the data set: activity coefficient (dimensionless); of the first substance listed, at infinite dilution; xn = mol fraction of the nth substance listed. To be noted: Liquid, Chromatography, x1 = 0.

Numbers after ± are expanded uncertainties.

As to `Cc1ccccc1C` [1,2-dimethylbenzene] + CCn1cc[n+](C)c1.F[B-](F)(F)F, the activity coefficient (303.15 K) worked out at 4.73 ± 0.5; the activity coefficient (313.15 K) was 4.69 ± 0.49; the activity coefficient (323.15 K) is 4.64 ± 0.49; the activity coefficient (333.15 K) turned out to be 4.58 ± 0.48; the activity coefficient (343.15 K) is 4.5 ± 0.47; the activity coefficient (353.15 K) stood at 4.41 ± 0.46. Moreover, for the setting “363.15 K”, the activity coefficient was determined as 4.34 ± 0.46.
As for `Cc1cccc(C)c1` [1,3-dimethylbenzene] + CCn1cc[n+](C)c1.F[B-](F)(F)F, the activity coefficient by setting is: (303.15 K) 5.88 ± 0.62; (313.15 K) 5.71 ± 0.6; (323.15 K) 5.57 ± 0.59; (333.15 K) 5.32 ± 0.56; (343.15 K) 5.17 ± 0.54; (353.15 K) 4.98 ± 0.52. Besides, the activity coefficient (363.15 K) came out at 4.83 ± 0.51.
As for `Cc1ccc(C)cc1` [1,4-dimethylbenzene] + CCn1cc[n+](C)c1.F[B-](F)(F)F, the activity coefficient came to 5.41 ± 0.57 (303.15 K); 5.3 ± 0.56 (313.15 K); 5.14 ± 0.54 (323.15 K); 5.03 ± 0.53 (333.15 K); 4.96 ± 0.52 (343.15 K); 4.88 ± 0.51 (353.15 K). Also, the activity coefficient (363.15 K) was 4.76 ± 0.5.
Regarding `C1COCCO1` [1,4-dioxane] + CCn1cc[n+](C)c1.F[B-](F)(F)F, the activity coefficient by setting is: (303.15 K) 1.35 ± 0.14; (313.15 K) 1.4 ± 0.14; (323.15 K) 1.42 ± 0.15; (333.15 K) 1.44 ± 0.15; (343.15 K) 1.47 ± 0.15; (353.15 K) 1.49 ± 0.15. The activity coefficient (363.15 K) was 1.51 ± 0.16.
Consider `CC(C)CC(C)(C)C` [2,2,4-trimethylpentane] + CCn1cc[n+](C)c1.F[B-](F)(F)F, for which the activity coefficient runs as follows: (303.15 K) 158 ± 17; (313.15 K) 143 ± 15; (323.15 K) 124 ± 13; (333.15 K) 112 ± 12; (343.15 K) 101 ± 11; (353.15 K) 85.8 ± 9. Further, the activity coefficient (363.15 K) was 75.3 ± 7.9.
On to `CC(C)=O` [acetone] + CCn1cc[n+](C)c1.F[B-](F)(F)F, for which the activity coefficient reads like this: (303.15 K) 1.23 ± 0.13; (313.15 K) 1.26 ± 0.13; (323.15 K) 1.27 ± 0.13; (333.15 K) 1.29 ± 0.13; (343.15 K) 1.31 ± 0.14; (353.15 K) 1.33 ± 0.14. For the same compound, where the note is “363.15 K”, the activity coefficient amounted to 1.33 ± 0.14.
Regarding `CC#N` [acetonitrile] + CCn1cc[n+](C)c1.F[B-](F)(F)F, the activity coefficient by setting is: (303.15 K) 0.892 ± 0.091; (313.15 K) 0.875 ± 0.09; (323.15 K) 0.853 ± 0.087; (333.15 K) 0.832 ± 0.085; (343.15 K) 0.814 ± 0.084; (353.15 K) 0.792 ± 0.082. For the same compound, the activity coefficient (363.15 K) was found to be 0.769 ± 0.079.
Take `c1ccccc1` [benzene] + CCn1cc[n+](C)c1.F[B-](F)(F)F: the activity coefficient (303.15 K) stood at 2.13 ± 0.22; the activity coefficient (313.15 K) is 2.11 ± 0.22; the activity coefficient (323.15 K) came out at 2.09 ± 0.22; the activity coefficient (333.15 K) worked out at 2.05 ± 0.21; the activity coefficient (343.15 K) is 2.02 ± 0.21; the activity coefficient (353.15 K) stood at 1.99 ± 0.21. Further, the activity coefficient (363.15 K) worked out at 1.96 ± 0.21.
`C1CCCCC1` [cyclohexane] + CCn1cc[n+](C)c1.F[B-](F)(F)F: the activity coefficient turned out to be 70.5 ± 7.4 (303.15 K); 60.9 ± 6.4 (313.15 K); 49.7 ± 5.2 (323.15 K); 39.6 ± 4.2 (333.15 K); 31.2 ± 3.3 (343.15 K); 27.5 ± 2.9 (353.15 K). For the same compound, the activity coefficient (363.15 K) was 21.9 ± 2.3.
In the case of `C1=CCCCC1` [cyclohexene] + CCn1cc[n+](C)c1.F[B-](F)(F)F, the activity coefficient was found to be 21.8 ± 2.3 (303.15 K); 19.6 ± 2.1 (313.15 K); 16.6 ± 1.8 (323.15 K); 14.4 ± 1.5 (333.15 K); 12.8 ± 1.3 (343.15 K); 10.5 ± 1.1 (353.15 K). Also, where the note is “363.15 K”, the activity coefficient is 9.13 ± 0.96.
Take `CCCCCCCCCC` [decane] + CCn1cc[n+](C)c1.F[B-](F)(F)F: the activity coefficient (303.15 K) turned out to be 1110 ± 120; the activity coefficient (313.15 K) was determined as 984 ± 100; the activity coefficient (323.15 K) was 861 ± 91; the activity coefficient (333.15 K) was 751 ± 79; the activity coefficient (343.15 K) came out at 643 ± 68; the activity coefficient (353.15 K) is 545 ± 58. The activity coefficient (363.15 K) turned out to be 456 ± 48.
In the case of `ClCCl` [dichloromethane] + CCn1cc[n+](C)c1.F[B-](F)(F)F, the activity coefficient came out at 1.12 ± 0.12 (303.15 K); 1.16 ± 0.12 (313.15 K); 1.21 ± 0.12 (323.15 K); 1.25 ± 0.13 (333.15 K); 1.32 ± 0.14 (343.15 K); 1.36 ± 0.14 (353.15 K). For the same compound, where the note is “363.15 K”, the activity coefficient came to 1.39 ± 0.14.
As to `CCOC(C)=O` [ethyl acetate] + CCn1cc[n+](C)c1.F[B-](F)(F)F, the activity coefficient reads like this: (303.15 K) 2.94 ± 0.31; (313.15 K) 2.92 ± 0.31; (323.15 K) 2.89 ± 0.3; (333.15 K) 2.87 ± 0.3; (343.15 K) 2.83 ± 0.3; (353.15 K) 2.79 ± 0.29. Moreover, under “363.15 K”, the activity coefficient was determined as 2.75 ± 0.29.
In the case of `CCc1ccccc1` [ethylbenzene] + CCn1cc[n+](C)c1.F[B-](F)(F)F, the activity coefficient came out at 6.49 ± 0.68 (303.15 K); 6.3 ± 0.66 (313.15 K); 6.11 ± 0.64 (323.15 K); 5.89 ± 0.62 (333.15 K); 5.58 ± 0.59 (343.15 K); 5.44 ± 0.57 (353.15 K). For the same compound, under “363.15 K”, the activity coefficient was found to be 5.31 ± 0.56.
Turning to `CCCCCCC` [heptane] + CCn1cc[n+](C)c1.F[B-](F)(F)F, the activity coefficient stood at 154 ± 16 (303.15 K); 138 ± 15 (313.15 K); 124 ± 13 (323.15 K); 111 ± 12 (333.15 K); 104 ± 11 (343.15 K); 96 ± 10 (353.15 K). For the same compound, the activity coefficient (363.15 K) was 90.4 ± 9.5.
On to `CCCCCC` [hexane] + CCn1cc[n+](C)c1.F[B-](F)(F)F, for which the activity coefficient is, setting by setting: (303.15 K) 101 ± 11; (313.15 K) 95.3 ± 10; (323.15 K) 90.6 ± 9.5; (333.15 K) 85.3 ± 9; (343.15 K) 77.4 ± 8.2; (353.15 K) 74.5 ± 7.8. Moreover, where the note is “363.15 K”, the activity coefficient turned out to be 69.5 ± 7.3.
As for `CC1CCCCC1` [methylcyclohexane] + CCn1cc[n+](C)c1.F[B-](F)(F)F, the activity coefficient by setting is: (303.15 K) 93 ± 9.8; (313.15 K) 79.7 ± 8.4; (323.15 K) 67.7 ± 7.1; (333.15 K) 58.9 ± 6.2; (343.15 K) 51.4 ± 5.4; (353.15 K) 43.3 ± 4.6. Further, the activity coefficient (363.15 K) is 32.3 ± 3.4.
On to `CCCCCCCCC` [nonane] + CCn1cc[n+](C)c1.F[B-](F)(F)F, for which the activity coefficient (303.15 K) is 319 ± 34; the activity coefficient (313.15 K) was found to be 294 ± 31; the activity coefficient (323.15 K) turned out to be 272 ± 29; the activity coefficient (333.15 K) was determined as 254 ± 27; the activity coefficient (343.15 K) was determined as 248 ± 26; the activity coefficient (353.15 K) stood at 235 ± 25. The activity coefficient (363.15 K) amounted to 224 ± 24.
Consider `CCCCCCCC` [octane] + CCn1cc[n+](C)c1.F[B-](F)(F)F, for which the activity coefficient (303.15 K) was 216 ± 23; the activity coefficient (313.15 K) was 201 ± 21; the activity coefficient (323.15 K) worked out at 187 ± 20; the activity coefficient (333.15 K) amounted to 173 ± 18; the activity coefficient (343.15 K) was 158 ± 17; the activity coefficient (353.15 K) turned out to be 149 ± 16. Moreover, the activity coefficient (363.15 K) was 140 ± 15.
As to `CCCCC` [pentane] + CCn1cc[n+](C)c1.F[B-](F)(F)F, the activity coefficient (303.15 K) is 68.8 ± 7.2; the activity coefficient (313.15 K) was 62.5 ± 6.6; the activity coefficient (323.15 K) is 57.6 ± 6.1; the activity coefficient (333.15 K) is 53.9 ± 5.7; the activity coefficient (343.15 K) came out at 49 ± 5.2; the activity coefficient (353.15 K) was determined as 45.7 ± 4.8. Also, the activity coefficient (363.15 K) was found to be 42.1 ± 4.4.
On to `C=Cc1ccccc1` [styrene] + CCn1cc[n+](C)c1.F[B-](F)(F)F, for which the activity coefficient by setting is: (303.15 K) 3.38 ± 0.35; (313.15 K) 3.44 ± 0.36; (323.15 K) 3.49 ± 0.37; (333.15 K) 3.56 ± 0.37; (343.15 K) 3.62 ± 0.38; (353.15 K) 3.65 ± 0.38. For the same compound, the activity coefficient (363.15 K) turned out to be 3.73 ± 0.39.
Turning to `ClC(Cl)(Cl)Cl` [tetrachloromethane] + CCn1cc[n+](C)c1.F[B-](F)(F)F, the activity coefficient (303.15 K) is 4.31 ± 0.45; the activity coefficient (313.15 K) was determined as 4.41 ± 0.46; the activity coefficient (323.15 K) is 4.56 ± 0.48; the activity coefficient (333.15 K) stood at 4.66 ± 0.49; the activity coefficient (343.15 K) is 4.8 ± 0.5; the activity coefficient (353.15 K) came out at 4.89 ± 0.51. For the same compound, where the note is “363.15 K”, the activity coefficient was 4.98 ± 0.52.
For `C1CCOC1` [tetrahydrofuran] + CCn1cc[n+](C)c1.F[B-](F)(F)F, the activity coefficient is, setting by setting: (303.15 K) 1.87 ± 0.2; (313.15 K) 1.85 ± 0.19; (323.15 K) 1.83 ± 0.19; (333.15 K) 1.82 ± 0.19; (343.15 K) 1.8 ± 0.19; (353.15 K) 1.77 ± 0.18. Under “363.15 K”, the activity coefficient is 1.74 ± 0.18.
On to `Cc1ccccc1` [toluene] + CCn1cc[n+](C)c1.F[B-](F)(F)F, for which the activity coefficient amounted to 3.68 ± 0.39 (303.15 K); 3.66 ± 0.38 (313.15 K); 3.62 ± 0.38 (323.15 K); 3.56 ± 0.37 (333.15 K); 3.52 ± 0.37 (343.15 K); 3.48 ± 0.37 (353.15 K). Also, the activity coefficient (363.15 K) is 3.4 ± 0.36.
As to `ClC(Cl)Cl` [trichloromethane] + CCn1cc[n+](C)c1.F[B-](F)(F)F, the activity coefficient stood at 1.36 ± 0.14 (303.15 K); 1.38 ± 0.14 (313.15 K); 1.39 ± 0.14 (323.15 K); 1.41 ± 0.15 (333.15 K); 1.43 ± 0.15 (343.15 K); 1.46 ± 0.15 (353.15 K). Moreover, where the note is “363.15 K”, the activity coefficient is 1.5 ± 0.15.
